Reference: US11230555B2, “Bicyclic RORγ modulators” (Escalier Biosciences B.V., priority 2018, dated 2022)

Target: T1, RORγt (Homo sapiens, UniProt P51449)
T1 construct: purchased reporter-cell kit
T1 sequence (P51449 269-508 limits assumed): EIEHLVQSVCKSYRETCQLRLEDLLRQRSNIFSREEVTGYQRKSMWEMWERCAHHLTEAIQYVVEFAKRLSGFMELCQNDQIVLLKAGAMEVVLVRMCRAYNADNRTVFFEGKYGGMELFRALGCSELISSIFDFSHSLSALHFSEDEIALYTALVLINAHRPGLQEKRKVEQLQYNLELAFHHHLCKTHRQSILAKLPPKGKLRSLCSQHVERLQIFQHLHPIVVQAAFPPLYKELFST
Experiment: Gal4 ligand binding assay (RORγt Gal fusion reporter assay)
Format: cell-based
Conditions: inverse agonists, luciferase reporter, 24h
Procedure: Compounds of the present invention were tested in a human RORγ ligand binding assay using a commercially available cell based ligand binding reporter assay in 96-well format (Cat #IB04001, INDIGO Biosciences, State College, Pa.). The N-terminal DNA binding domains (DBD) of the native RORγ and RORγt receptors have been substituted with that of the yeast GAL4-DBD and stably transfected in […] cells that also stably express luciferase under the regulation by upstream activation sequence of yeast Gal4. These cells constitutively express high level RORγ activity due to binding of endogenous co-factors. Both agonist and inverse agonist activity can be detected. The assay was performed according to kit manufacturer's instructions as follows. 10 mM compound stocks were diluted serially 1:3 with DMSO and further diluted with provided media to generate 10 titration points from 60 μM to 3 nM. These treatment conditions were added to the plates as 2× media in 100 μL volume. Each plate includes a positive control with 10 titration points as well as 6negative control wells with vehicle only, with final DMSO concentration of 0.2%. RORγ reporter cells were rapidly thawed and added to the plates in 100 μL volume. The plates were incubated for 24h in a 37° C. humidified 5% CO2incubator. Media was removed before the addition of room temperature luciferous detection substrate. After 5 minute incubation, relative light units (RLUs) were quantified using a plate reading luminometer. Data was normalized to positive control wells with only […]. Before establishing internal controls, ursolic acid was used as control.

Compound | IC50
Cc1cc(CN2CC3CCC(C2)C3NS(C)(=O)=O)ccc1-c1ccc(C(O)(C(F)(F)F)C(F)(F)F)cc1 (stereo not drawn) [Example 46, N-(3-((4′-(1,1,1,3,3,3-hexafluoro-2-hydroxypropan-2-yl)-2-methyl-[1,1′-biphenyl]-4-yl)methyl)-3-azabicyclo[3.2.1]octan-8-yl)methanesulfonamide] | > 250 nM
CCc1cc(CN2CC3CCC(C2)N3S(C)(=O)=O)cc(F)c1-c1ccc(C(O)(C(F)(F)F)C(F)(F)F)cc1Cl [Example 18, 2-(2-chloro-2′-ethyl-6′-fluoro-4′-((8-(methylsulfonyl)-3,8-diazabicyclo[3.2.1]octan-3-yl)methyl)-[1,1′-biphenyl]-4-yl)-1,1,1,3,3,3-hexafluoropropan-2-ol] | < 50 nM
CCc1cc(CN2CC3CCC(C2)N3S(C)(=O)=O)ccc1-c1ccc(C(O)(C(F)(F)F)C(F)(F)F)cc1C(N)=O [Example 31, 2′-ethyl-4-(1,1,1,3,3,3-hexafluoro-2-hydroxypropan-2-yl)-4′-((8-(methylsulfonyl)-3,8-diazabicyclo[3.2.1]octan-3-yl)methyl)-[1,1′-biphenyl]-2-carboxamide] | > 250 nM
COCC(=O)N1C2CCC1CN(Cc1ccc(-c3ccc(C(O)(C(F)(F)F)C(F)(F)F)cc3)c(C)c1)C2 [Example 54, 1-(3-((4′-(1,1,1,3,3,3-hexafluoro-2-hydroxypropan-2-yl)-2-methyl-[1,1′-biphenyl]-4-yl)methyl)-3,8-diazabicyclo[3.2.1]octan-8-yl)-2-methoxyethan-1-one] | 50 to 250 nM
CCN1C2CCC1CN(Cc1ccc(-c3ccc(C(O)(C(F)(F)F)C(F)(F)F)cc3)c(C)c1)C2 [Example 42, 2-(4′-((8-ethyl-3,8-diazabicyclo[3.2.1]octan-3-yl)methyl)-2′-methyl-[1,1′-biphenyl]-4-yl)-1,1,1,3,3,3-hexafluoropropan-2-ol] | > 250 nM
CCc1cc(CN2CC3CCC(C2)N3S(C)(=O)=O)cc(F)c1-c1ccc(C(O)(C(F)(F)F)C(F)(F)F)cc1 [Example 16, 2-(2′-ethyl-6′-fluoro-4′-((8-(methylsulfonyl)-3,8-diazabicyclo[3.2.1]octan-3-yl)methyl)-[1,1′-biphenyl]-4-yl)-1,1,1,3,3,3-hexafluoropropan-2-ol] | < 50 nM
Cc1cc(CN2CC3CCC(C2)N3C(=O)c2ccncc2)ccc1-c1ccc(C(O)(C(F)(F)F)C(F)(F)F)cc1 [Example 75, (3-((4′-(1,1,1,3,3,3-hexafluoro-2-hydroxypropan-2-yl)-2-methyl-[1,1′-biphenyl]-4-yl)methyl)-3,8-diazabicyclo[3.2.1]octan-8-yl)(pyridin-4-yl)methanone] | 50 to 250 nM
Cc1cc(CN2CC3CCC2CN3S(C)(=O)=O)ccc1-c1ccc(C(O)(C(F)(F)F)C(F)(F)F)cc1 (stereo not drawn) [Example 50, 1,1,1,3,3,3-hexafluoro-2-(2′-methyl-4′-((5-(methylsulfonyl)-2,5-diazabicyclo[2.2.2]octan-2-yl)methyl)-[1,1′-biphenyl]-4-yl)propan-2-ol] | > 250 nM
CCc1cc(CN2CC3CCC(C2)N3S(C)(=O)=O)ccc1-c1ccc(C(O)(C(F)(F)F)C(F)(F)F)cc1F [Example 24, 2-(2′-ethyl-2-fluoro-4′-((8-(methylsulfonyl)-3,8-diazabicyclo[3.2.1]octan-3-yl)methyl)-[1,1′-biphenyl]-4-yl)-1,1,1,3,3,3-hexafluoropropan-2-ol] | < 50 nM
CCc1c(-c2ccc(C(O)(C(F)(F)F)C(F)(F)F)cc2Cl)cc(F)c(CN2CC3CCC(C2)N3S(C)(=O)=O)c1F [Example 10, 2-(2-chloro-2′-ethyl-3′,5′-difluoro-4′-((8-(methylsulfonyl)-3,8-diazabicyclo[3.2.1]octan-3-yl)methyl)-[1,1′-biphenyl]-4-yl)-1,1,1,3,3,3-hexafluoropropan-2-ol] | < 50 nM
Cc1cc(C(O)(C(F)(F)F)C(F)(F)F)ccc1-c1cc(F)c(CN2CC3CCC(C2)N3S(C)(=O)=O)cc1C(C)C [Example 20, 1,1,1,3,3,3-hexafluoro-2-(5′-fluoro-2′-isopropyl-2-methyl-4′-((8-(methylsulfonyl)-3,8-diazabicyclo[3.2.1]octan-3-yl)methyl)-[1,1′-biphenyl]-4-yl)propan-2-ol] | 50 to 250 nM
CCc1cc(CN2[C@@H]3COC[C@H]2CN(S(C)(=O)=O)C3)ccc1-c1ccc(C(O)(C(F)(F)F)C(F)(F)F)cc1 [Example 8, 2-(2′-ethyl-4′-(((1R,5S)-7-(methylsulfonyl)-3-oxa-7,9-diazabicyclo[3.3.1]nonan-9-yl)methyl)-[1,1′-biphenyl]-4-yl)-1,1,1,3,3,3-hexafluoropropan-2-ol] | 50 to 250 nM
CCc1c(-c2ccc(C(O)(C(F)(F)F)C(F)(F)F)cc2F)cc(F)c(CN2CC3CCC(C2)N3S(C)(=O)=O)c1F [Example 13, 2-(2′-ethyl-2,3′,5′-trifluoro-4′-((8-(methylsulfonyl)-3,8-diazabicyclo[3.2.1]octan-3-yl)methyl)-[1,1′-biphenyl]-4-yl)-1,1,1,3,3,3-hexafluoropropan-2-ol] | < 50 nM
CS(=O)(=O)N1C2CCC1CN(Cc1ccc(-c3ccc(C(O)(C(F)(F)F)C(F)(F)F)cc3)c(F)c1)C2 [Example 61, 1,1,1,3,3,3-hexafluoro-2-(2′-fluoro-4′-((8-(methylsulfonyl)-3,8-diazabicyclo[3.2.1]octan-3-yl)methyl)-[1,1′-biphenyl]-4-yl)propan-2-ol] | > 250 nM
CCc1cc(CN2CC3CCC(C2)N3Cc2ccncc2)ccc1-c1ccc(C(O)(C(F)(F)F)C(F)(F)F)cc1 [Example 53, 2-(2′-ethyl-4′-((8-(pyridin-4-ylmethyl)-3,8-diazabicyclo[3.2.1]octan-3-yl)methyl)-[1,1′-biphenyl]-4-yl)-1,1,1,3,3,3-hexafluoropropan-2-ol] | < 50 nM
CCc1cc(C(O)(C(F)(F)F)C(F)(F)F)ccc1-c1ccc(CN2CC3CCC(C2)N3S(C)(=O)=O)cc1C [Example 26, 2-(2-ethyl-2′-methyl-4′-((8-(methylsulfonyl)-3,8-diazabicyclo[3.2.1]octan-3-yl)methyl)-[1,1′-biphenyl]-4-yl)-1,1,1,3,3,3-hexafluoropropan-2-ol] | < 50 nM
Cc1cc(CN2CC3CCC(C2)N3S(=O)(=O)CC(F)(F)F)ccc1-c1ccc(C(O)(C(F)(F)F)C(F)(F)F)cc1 [Example 67, 1,1,1,3,3,3-hexafluoro-2-(2′-methyl-4′-((8-((2,2,2-trifluoroethyl)sulfonyl)-3,8-diazabicyclo[3.2.1]octan-3-yl)methyl)-[1,1′-biphenyl]-4-yl)propan-2-ol] | > 250 nM
OC(c1ccc(-c2ccc(CN3CC4CCC(C3)N4Cc3ccncc3)cc2F)cc1)(C(F)(F)F)C(F)(F)F [Example 59, 1,1,1,3,3,3-hexafluoro-2-(2′-fluoro-4′-((8-(pyridin-4-ylmethyl)-3,8-diazabicyclo[3.2.1]octan-3-yl)methyl)-[1,1′-biphenyl]-4-yl)propan-2-ol] | > 250 nM
CCc1cc(CN2C3CCC2CN(S(C)(=O)=O)C3)ccc1-c1ccc(C(O)(C(F)(F)F)C(F)(F)F)cc1Cl [Example 7, 2-(2-chloro-2′-ethyl-4′-((3-(methylsulfonyl)-3,8-diazabicyclo[3.2.1]octan-8-yl)methyl)-[1,1′-biphenyl]-4-yl)-1,1,1,3,3,3-hexafluoropropan-2-ol] | < 50 nM
CC(=O)N1C2CCC1CN(Cc1ccc(-c3ccc(C(O)(C(F)(F)F)C(F)(F)F)cc3)c(C)c1)C2 [Example 71, 1-(3-((4′-(1,1,1,3,3,3-hexafluoro-2-hydroxypropan-2-yl)-2-methyl-[1,1′-biphenyl]-4-yl)methyl)-3,8-diazabicyclo[3.2.1]octan-8-yl)ethan-1-one] | 50 to 250 nM
CCc1cc(CN2CC3CCC(C2)N3C(C)=O)ccc1-c1ccc(C(O)(C(F)(F)F)C(F)(F)F)cc1 [Example 39, 1-(3-((2-ethyl-4′-(1,1,1,3,3,3-hexafluoro-2-hydroxypropan-2-yl)-[1,1′-biphenyl]-4-yl)methyl)-3,8-diazabicyclo[3.2.1]octan-8-yl)ethan-1-one] | < 50 nM
CCc1c(-c2ccc(C(O)(C(F)(F)F)C(F)(F)F)cc2C)cc(F)c(CN2CC3CCC(C2)N3S(C)(=O)=O)c1F [Example 28, 2-(2′-ethyl-3′,5′-difluoro-2-methyl-4′-((8-(methylsulfonyl)-3,8-diazabicyclo[3.2.1]octan-3-yl)methyl)-[1,1′-biphenyl]-4-yl)-1,1,1,3,3,3-hexafluoropropan-2-ol] | < 50 nM
CCc1cc(CN2CC3CCC(C2)N3S(C)(=O)=O)ncc1-c1ccc(C(O)(C(F)(F)F)C(F)(F)F)cc1C [Example 3, 2-(4-(4-ethyl-6-((8-(methylsulfonyl)-3,8-diazabicyclo[3.2.1]octan-3-yl)methyl)pyridin-3-yl)-3-methylphenyl)-1,1,1,3,3,3-hexafluoropropan-2-ol] | 50 to 250 nM
CCc1cc(CN2CC3COCC(C2)N3S(C)(=O)=O)ccc1-c1ccc(C(O)(C(F)(F)F)C(F)(F)F)cc1 [Example 12, 2-(2′-ethyl-4′-((9-(methylsulfonyl)-3-oxa-7,9-diazabicyclo[3.3.1]nonan-7-yl)methyl)-[1,1′-biphenyl]-4-yl)-1,1,1,3,3,3-hexafluoropropan-2-ol] | 50 to 250 nM
